Data reported in patent US5559096A, “Pharmaceutical compositions against gastric disorders” (Applied Microbiology, Inc., priority 1991, dated 1996).
Positions of bridges follow the written chain, without caps; N, C: chain ends. Non-standard residues stand in square brackets, D forms with d. Primed or numbered codes have the meaning given here. No end group written: not given here. Dhb′ = not defined here; Abu = CC[C@H](N)C(=O)O; Dha = C=C(N)C(=O)O

Assays:
H.pylori NCTC 11916 = experiment: MIC by spiral plater, H.pylori NCTC 11916; format: cell-based, Helicobacter pylori; settings: H.pylori NCTC 11916, human strain
Experimental: (§1) The Minimum Inhibitory Concentration (MIC) of bacteriocin antimicrobial agents against a human strains of H.pylori (H.pylori NCTC 11916 and NCTC 11637) were assessed using a spiral plater and automatic agar plate pourer, according to the method of Wallace A. S. and Corkill J. E. (J. Microbial. Methods, 10, 303-310, 1989). MIC values were calculated according to the equation for the Archimedes spiral.

Helicobacter pylori [1] = experiment: Kill time assay: effect of citrate on antimicrobial activity (microbe survival); format: cell-based; settings: Citrate 10 mM; for Mean Counts CFU/ml 1 min: 1 min after inoculation; for Mean Counts CFU/ml 5 min: 5 min after inoculation; for Mean Counts CFU/ml 30 min: 30 min after inoculation
Experimental: A kill time assay was carried out to determine the effect of citrate on antimicrobial activity. Microbe survival was assessed after treatment with bacteriocin alone and bacteriocin plus citrate. The effect of citrate alone was also measured. Survival was measured at 1,5 and 30 minutes after inoculation. Activity is expressed as the mean number of counts of colony forming units (CFU) per ml.

H.pylori NCTC 11637 = experiment: MIC by spiral plater, H.pylori NCTC 11637; format: cell-based, Helicobacter pylori; settings: H.pylori NCTC 11637, human strain
Experimental: as §1

Helicobacter pylori [2] = experiment: Kill time at 4 times the average MIC; format: cell-based; settings: time taken to reduce microbe levels to <200 viable organisms; drug concentration 4 times the average MIC
Experimental: Kill time was calculated as the time taken to reduce microbe levels to <200 viable organisms using a drug concentration equal to 4 times the average MIC value for the test compound.

[3] = Initial Inoculum 8.92 × 10^4, Ambicin N 300 ppm

CC(C)C[C@@H]1NC(=O)[C@H](CCCN)NC(=O)[C@H](C(C)C)NC(=O)[C@H](Cc2ccc(O)cc2)N[C@@H](CCC(=O)O)C(=O)N[C@@H](CC(N)=O)C(=O)[C@@H](Cc2ccccc2)NC(=O)[C@H](Cc2ccccc2)NC(=O)[C@@H]2CCCN2C(=O)[C@@H](Cc2ccccc2)NC1=O [Tyrothricin]
MIC Value NCTC 11916 (H.pylori NCTC 11916): 1.0 to 4.0 µg/mL
Mean Counts CFU/ml 1 min (Helicobacter pylori [1]; Initial Inoculum 2.39 × 10^5): 2.55 × 10^4 CFU/ml
Mean Counts CFU/ml 5 min (Helicobacter pylori [1]; Initial Inoculum 2.39 × 10^5): 1.77 × 10^4 CFU/ml
Mean Counts CFU/ml 30 min (Helicobacter pylori [1]; Initial Inoculum 2.39 × 10^5): 1.78 × 10^4 CFU/ml
MIC Value NCTC 11637 (H.pylori NCTC 11637): 1.0 to 5.0 µg/mL
Kill Time (Helicobacter pylori [2]): < 1

Gramicidin
MIC Value NCTC 11916 (H.pylori NCTC 11916): 0.5 to 3.0 µg/mL
Mean Counts CFU/ml 1 min (Helicobacter pylori [1]; Initial Inoculum 2.39 × 10^5): 7.69 × 10^3 CFU/ml
Mean Counts CFU/ml 5 min (Helicobacter pylori [1]; Initial Inoculum 2.39 × 10^5): 1.44 × 10^4 CFU/ml
Mean Counts CFU/ml 30 min (Helicobacter pylori [1]; Initial Inoculum 2.39 × 10^5): 1.35 × 10^4 CFU/ml
MIC Value NCTC 11637 (H.pylori NCTC 11637): 1.0 to 3.5 µg/mL
Kill Time (Helicobacter pylori [2]): > 30

O=C(O)CC(O)(CC(=O)O)C(=O)O [Citrate]
Mean Counts CFU/ml 1 min (Helicobacter pylori [1]; Initial Inoculum 2.39 × 10^5): 1.59 × 10^4 CFU/ml
Mean Counts CFU/ml 1 min (Helicobacter pylori [1]; [3]): 7.98 × 10^4 CFU/ml
Mean Counts CFU/ml 5 min (Helicobacter pylori [1]; Initial Inoculum 2.39 × 10^5): 1.42 × 10^4 CFU/ml
Mean Counts CFU/ml 5 min (Helicobacter pylori [1]; [3]): 8.64 × 10^4 CFU/ml
Mean Counts CFU/ml 30 min (Helicobacter pylori [1]; Initial Inoculum 2.39 × 10^5): 1.95 × 10^4 CFU/ml
Mean Counts CFU/ml 30 min (Helicobacter pylori [1]; [3]): 6.92 × 10^4 CFU/ml

Ambicin N: purified form of nisin made available by Applied Microbiology Inc. under the trade name AMBICIN N (I[Dhb′]AI[Dha]LC[Abu]PGCK[Abu]GALMGCNMK[Abu]A[Abu]CHCSIHV[Dha]K; thioether 8-11, 13-19, 23-26, 25-28, 3-7; UniProt P13068 24-57, looked up)
MIC Value NCTC 11916 (H.pylori NCTC 11916): 50 to 300 µg/mL
Mean Counts CFU/ml 1 min (Helicobacter pylori [1]; [3]): 6.31 × 10^4 CFU/ml
Mean Counts CFU/ml 5 min (Helicobacter pylori [1]; [3]): 5.71 × 10^4 CFU/ml
Mean Counts CFU/ml 30 min (Helicobacter pylori [1]; [3]): 4.72 × 10^4 CFU/ml
MIC Value NCTC 11637 (H.pylori NCTC 11637): 50 to 300 µg/mL
Kill Time (Helicobacter pylori [2]): > 30
